System: C. elegans wild-type N2 strain
Test: Worm culture and growth assay in axenic CeHR/mCeHR liquid medium
Format: in vivo
Set-up: key to Growth 1.6 μM hemin / Growth 0.5 μM GaPP: + = wild type equivalent In growth; ND: No growth
Procedure: (D) Biphasic response of C. elegans cultured in the presence of increasing amounts of hemin chloride (μM). Equal numbers of synchronized L1 larvae were grown in 24-well plates in mCeHR medium for 9 days and quantified (worms/μl) by microscopy. Each data point represents the mean±SD from three separate experiments performed in triplicate.
(A) Aerobic growth of C. elegans in mCeFIR medium with 20 μM hemin supplemented with either gallium protoporphyrin IX (GaPP) or gallium salts. Synchronized L1 larvae were grown for 9 days in 24-well plates and quantified (worms/μl) by microscopy. Each data point represents the mean from a single experiment, and each experiment was performed in triplicate. Inset depicts the GaPP analysis at lower concentrations for clarity.
(B) Effect of heme on the cytotoxicity of GaPP. Synchronized L1 larvae were inoculated in 24-well plates containing mCeHR medium with either 0, 2, 4, or 6 μM GaPP and increasing hemin (μM). The number of worms per μl was measured on day 9 and the data are presented as mean±SD.
FIG. 9 depicts worm utilization of heme-iron under iron deprivation. Equal numbers of synchronized L1 larvae were grown in the presence of 4, 20, and 100 μM hemin, either in basal mCeHR medium (set 1), or basal medium lacking exogenous iron (set 2), or as set 2 with 1 μM of the iron chelator ferrozine (set 3), or as set 3 with 486 μM ferrous ammonium sulfate (set 4). These values of ferrozine and iron were empirically determined by performing dose-response experiments and analyzing worm growth. The number of worms per μl was measured on day 9 and the data presented as mean±SD performed in triplicate. P<0.001 between sets 1 and 3.
To qualitatively and quantitatively determine the heme requirement of C. elegans, we assessed growth at various heme concentrations. Equal numbers of L1 larvae were inoculated in CeHR medium with either no cytochrome c and hemin, or with cytochrome c and increasing amounts of hemin (FIG. 4A). The effect of hemin became apparent within 48 hours and by 9 days, the heme-deplete worms were severely growth retarded at the L1/L2 stages. […] However, this stimulatory effect of heme was toxic to worms grown at heme concentrations >750 μM. To quantitatively assess the effect of heme on worms, we counted the number of live worms grown under different concentration of heme using DIC microscopy. […] On the basis of this association between heme and the growth and reproduction of C. elegans, we conclude that the biphasic nature of heme is likely due to the need for heme under heme-deprived conditions to perform essential metabolic functions, and the lethality of heme at high concentrations can be attributed to its cytotoxic activity.
Worm Culture and Growth Assays. Free-living worms were cultured in CeHR axenic liquid medium (Dr. Eric Clegg, Personal Communication). […] CeHR medium was modified (henceforth called mCeHR) to eliminate all sources of exogenously added heme; basal growth medium comprised 20 μM hemin chloride (Frontier Scientific, Logan, Utah) and 150 μM of ferrous ammonium sulfate (Sigma Chemicals). Worm strains were grown in mCeHR medium under aerobic conditions in tissue culture flasks at 20° C. ˜3.7×10^6 worms were routinely obtained after 3.5 to 4 days in a T75 flask with 30 ml basal medium from an initial inoculum of −1.5×10^5 worms. For initial culturing of worms in axenic media, three generations of worms were sequentially bleached (1.1% bleach/0.55 M NaOH) to eliminate any contaminating bacterial carryover from agar plates. In all dose-response experiments, worms were growth synchronized by treating the gravid hermaphrodite worms with bleach to dissolve adult worms. The eggs, resistant to bleach, were liberated from the carcasses and extensively washed with M9 buffer followed by overnight hatching in M9 buffer to synchronize growth. By harvesting at appropriate time intervals, synchronous larval stages and adult staged worms were collected for experimental manipulations. […]

hemin chloride
growth delay compared to worms grown at 20 μM hemin (4 and 500 μM hemin): ~24 h | effect on growth under iron deprivation (20 and 100 μM hemin, with ferrozine, P<0.001): attenuated the growth retarding effects of iron deprivation | heme concentrations toxic to worms (CeHR medium): > 750 µM | hemin concentration at which maximum growth was achieved (CeHR medium with cytochrome c, L1 larvae inoculum): 10 µM | Growth 1.6 μM hemin (Control Wild-type (N2)): + | Generation time (Days) 20 μM (Control Wild-type (N2), 20 μM hemin): 3.5 days | brood size 20 μM (Control Wild-type (N2), 20 μM hemin, average in 24 well plates): 62.3 | Generation time (Days) 800 μM (Control Wild-type (N2), 800 μM hemin): >16 days | sensitivity to heme in liquid medium versus heme plates (in vivo): 10 times | hemin amount resulting in growth arrest at the L3 stage (mCeHR medium): ≥ 800 µM | optimum concentration of hemin for growth (mCeHR medium, 9 days): 20 µM

Reference: patent US20060206946A1, “Method of disrupting heme transport in nematodes and of modelling and evaluating eukaryotic heme transport” (priority 2005, published 2006)
